pIC50: −log10 of the molar value.

In general, pIC50 refers to −log10 of the IC50, conventionally taken in molar units.

This assay deals with T1, CDK12 complexed with Cyclin K (Homo sapiens, UniProt Q9NYV4).
T1 construct: GST (N)
T1 sequence (Q9NYV4 whole entry): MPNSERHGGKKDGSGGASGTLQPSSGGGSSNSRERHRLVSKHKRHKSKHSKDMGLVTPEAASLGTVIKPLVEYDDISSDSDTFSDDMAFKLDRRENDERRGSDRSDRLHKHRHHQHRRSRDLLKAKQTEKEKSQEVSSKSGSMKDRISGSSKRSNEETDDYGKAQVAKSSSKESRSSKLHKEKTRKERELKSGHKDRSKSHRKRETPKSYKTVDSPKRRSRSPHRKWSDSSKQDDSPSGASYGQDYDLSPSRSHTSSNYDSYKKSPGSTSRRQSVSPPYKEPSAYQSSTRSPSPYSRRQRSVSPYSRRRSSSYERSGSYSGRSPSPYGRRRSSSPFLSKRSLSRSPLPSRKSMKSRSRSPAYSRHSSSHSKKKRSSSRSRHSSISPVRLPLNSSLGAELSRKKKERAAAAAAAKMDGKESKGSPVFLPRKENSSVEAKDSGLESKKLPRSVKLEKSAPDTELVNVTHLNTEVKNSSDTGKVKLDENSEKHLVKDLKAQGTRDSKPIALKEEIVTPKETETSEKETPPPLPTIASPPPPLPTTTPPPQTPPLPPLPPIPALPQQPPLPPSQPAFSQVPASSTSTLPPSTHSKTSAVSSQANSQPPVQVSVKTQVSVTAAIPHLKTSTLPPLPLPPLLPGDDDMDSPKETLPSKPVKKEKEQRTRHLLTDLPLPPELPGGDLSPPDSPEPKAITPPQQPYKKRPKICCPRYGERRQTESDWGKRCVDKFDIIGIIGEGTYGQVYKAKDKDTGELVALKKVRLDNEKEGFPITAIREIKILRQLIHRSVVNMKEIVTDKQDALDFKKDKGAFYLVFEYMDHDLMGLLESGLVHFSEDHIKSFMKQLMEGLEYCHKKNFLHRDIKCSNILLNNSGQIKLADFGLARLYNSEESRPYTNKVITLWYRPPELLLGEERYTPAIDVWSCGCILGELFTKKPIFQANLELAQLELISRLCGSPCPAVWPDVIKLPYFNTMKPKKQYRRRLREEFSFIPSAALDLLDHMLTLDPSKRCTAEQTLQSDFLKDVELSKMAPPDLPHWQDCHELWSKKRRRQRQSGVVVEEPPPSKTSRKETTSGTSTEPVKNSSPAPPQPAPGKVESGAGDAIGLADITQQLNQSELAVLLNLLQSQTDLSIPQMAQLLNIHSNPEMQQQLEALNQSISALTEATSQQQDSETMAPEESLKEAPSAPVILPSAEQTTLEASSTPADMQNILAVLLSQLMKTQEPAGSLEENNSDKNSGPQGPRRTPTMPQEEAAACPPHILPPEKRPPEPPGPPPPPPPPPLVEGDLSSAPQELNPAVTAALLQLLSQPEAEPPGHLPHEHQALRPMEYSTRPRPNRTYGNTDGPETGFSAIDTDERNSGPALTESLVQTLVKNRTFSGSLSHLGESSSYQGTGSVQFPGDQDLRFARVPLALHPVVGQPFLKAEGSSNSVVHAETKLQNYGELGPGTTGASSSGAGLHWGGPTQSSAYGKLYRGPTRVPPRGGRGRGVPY
T1 sequence (O75909 whole entry partner): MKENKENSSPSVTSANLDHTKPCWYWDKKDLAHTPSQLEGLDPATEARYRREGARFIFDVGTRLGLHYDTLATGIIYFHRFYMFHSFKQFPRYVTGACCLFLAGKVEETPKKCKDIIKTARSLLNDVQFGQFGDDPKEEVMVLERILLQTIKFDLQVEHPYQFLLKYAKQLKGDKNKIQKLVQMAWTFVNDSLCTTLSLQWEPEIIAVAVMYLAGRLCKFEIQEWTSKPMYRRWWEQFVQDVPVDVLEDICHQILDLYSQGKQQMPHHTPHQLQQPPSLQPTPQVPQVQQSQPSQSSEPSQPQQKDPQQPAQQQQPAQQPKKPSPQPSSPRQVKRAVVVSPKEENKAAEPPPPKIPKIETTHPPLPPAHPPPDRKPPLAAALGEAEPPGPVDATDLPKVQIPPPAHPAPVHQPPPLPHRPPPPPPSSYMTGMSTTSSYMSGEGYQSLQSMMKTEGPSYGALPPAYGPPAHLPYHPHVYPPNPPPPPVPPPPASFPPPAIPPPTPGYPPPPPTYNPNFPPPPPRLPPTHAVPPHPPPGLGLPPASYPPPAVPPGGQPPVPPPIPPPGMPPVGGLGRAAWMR
Nature of the assay: CDK Enzymatic Assays (HTRF, LANCE Ultra kinase assay), Example A1. The assay is classed as biochemical. Conditions: enzyme pre-incubated with compounds for 60 minutes prior to addition of ATP (1 mM final) and Ulight-peptide; reaction 60-90 minutes at room temperature. An outline of the steps: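 N-terminal GST-tagged human CDK12 co-expressed with full-length Cyclin K (baculovirus), pre-incubated with compound 60 min, then 1 mM ATP and 50 nM ULight-4E-BP1 peptide added in HEPES pH 7.5 buffer; 60-90 min at room temperature. EDTA/Eu-antibody stop, HTRF 665/620 ratio normalized to controls; IC50 from 3- or 4-parameter fit.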
Turning to `C=CC(=O)Nc1ccc2c(c1)C(=O)N([C@H]1CCC[C@@H](Nc3ncc(C#N)c(N4CCOCC4)n3)C1)C2` [Example 76, N-(2-((1S,3R)-3-((5-Cyano-4-morpholinopyrimidin-2-yl)amino)cyclohexyl)-3-oxoisoindolin-5-yl)acrylamide], the pIC50 was over 7.30.

As to `C=CC(=O)Nc1ccc2c(c1)C(=O)N([C@H]1CCC[C@@H](Nc3ncc(C#N)c(N(C)C)n3)C1)C2` [Example 77, N-(2-((1S,3R)-3-((5-Cyano-4-(dimethylamino)pyrimidin-2-yl)amino)cyclohexyl)-3-oxoisoindolin-5-yl)acrylamide], the pIC50 is over 7.30.

Turning to `C=CC(=O)Nc1ccc2c(c1)C(=O)N([C@H]1CCC[C@@H](Nc3ncc(C(F)(F)F)c(NC)n3)C1)C2` [Example 78, N-(2-((1S,3R)-3-((4-(Methylamino)-5-(trifluoromethyl)pyrimidin-2-yl)amino)cyclohexyl)-3-oxoisoindolin-5-yl)acrylamide], the pIC50 was over 7.30.

Turning to `C=CC(=O)Nc1ccc2c(c1)ncn2[C@H]1CCC[C@@H](Nc2ncc(C#N)c(OC)n2)C1` [Example 79, N-(1-((1S,3R)-3-((5-Cyano-4-methoxypyrimidin-2-yl)amino)cyclohexyl)-1H-benzo[d]imidazol-5-yl)acrylamide], the pIC50 was over 7.30.

Consider `C=C(Cl)C(=O)Nc1ccc2c(c1)nc([C@H]1CCC[C@@H](Nc3ncc(C#N)c(OC)n3)C1)n2C` [Example 80, 2-Chloro-N-(2-((1S,3R)-3-((5-cyano-4-methoxypyrimidin-2-yl)amino)cyclohexyl)-1-methyl-1H-benzo[d]imidazol-5-yl)acrylamide], for which the negative-log IC50 (pIC50) is over 7.30.

In the case of `C=CC(=O)Nc1ccc2c(c1)C(=O)N([C@H]1CCC[C@@H](Nc3ncc(Cl)c(OC)n3)C1)C2` [Example 81, N-(2-((1S,3R)-3-((5-Chloro-4-methoxypyrimidin-2-yl)amino)cyclohexyl)-3-oxoisoindolin-5-yl)acrylamide], the negative logarithm of the IC50 (pIC50) was over 7.30.

Consider `C=CC(=O)Nc1ccc2c(c1)C(=O)N([C@H]1CCC[C@@H](Nc3ncc(Cl)cn3)C1)C2` [Example 82, N-(2-((1S,3R)-3-((5-Chloropyrimidin-2-yl)amino)cyclohexyl)-3-oxoisoindolin-5-yl)acrylamide], for which the negative-log IC50 (pIC50) was over 7.30.

Consider `C=CC(=O)Nc1ccc2c(c1)C(=O)N([C@H]1CCC[C@@H](Nc3ncc(C#N)c(OC)n3)C1)C2` [Example 83, N-(2-((1S,3R)-3-((5-Cyano-4-methoxypyrimidin-2-yl)amino)cyclohexyl)-3-oxoisoindolin-5-yl)acrylamide], for which the pIC50 was over 7.30.

As for `C=CC(=O)Nc1ccc2c(c1)nc(C(F)F)n2[C@H]1CCC[C@@H](Nc2ncc(C#N)cn2)C1` [Example 84, N-(1-((1S,3R)-3-((5-Cyanopyrimidin-2-yl)amino)cyclohexyl)-2-(difluoromethyl)-1H-benzo[d]imidazol-5-yl)acrylamide], the pIC50 is 6.30 to 7.30.

On to `C=CC(=O)Nc1ccc2c(c1)C(=O)N([C@H]1CCC[C@@H](Nc3ncc(C(F)(F)F)cn3)C1)C2` [Example 85, N-(3-Oxo-2-((1S,3R)-3-((5-(trifluoromethyl)pyrimidin-2-yl)amino)cyclohexyl)isoindolin-5-yl)acrylamide], for which the negative logarithm of the IC50 (pIC50) is over 7.30.

As for `C=CC(=O)Nc1ccc2c(c1)nc(N1C[C@H](O)C[C@@H](Nc3ncc(C(F)(F)F)cn3)C1)n2C` [Example 88, N-(2-((3R,5R)-3-Hydroxy-5-((5-(trifluoromethyl)pyrimidin-2-yl)amino)piperidin-1-yl)-1-methyl-1H-benzo[d]imidazol-5-yl)acrylamide], the pIC50 is over 7.30.

For `C=CC(=O)Nc1ccc2c(c1)nc(N1C[C@H](F)C[C@@H](Nc3ncc(C#N)cn3)C1)n2C` [Example 89, N-(2-((3R,5R)-3-((5-Cyanopyrimidin-2-yl)amino)-5-fluoropiperidin-1-yl)-1-methyl-1H-benzo[d]imidazol-5-yl)acrylamide], the negative logarithm of the IC50 (pIC50) is over 7.30.

In the case of `C=CC(=O)Nc1ccc2c(c1)nc(N1CC[C@@H](F)[C@@H](Nc3ncc(C(F)(F)F)cn3)C1)n2C` [Example 90, N-(2-((3S,4R)-4-Fluoro-3-((5-(trifluoromethyl)pyrimidin-2-yl)amino)piperidin-1-yl)-1-methyl-1H-benzo[d]imidazol-5-yl)acrylamide], the pIC50 was over 7.30.

Consider `C=CC(=O)Nc1ccc2c(c1)nc(N1CC[C@H](F)[C@@H](Nc3ncc(C(F)(F)F)cn3)C1)n2C` [Example 91, N-(2-((3S,4S)-4-Fluoro-3-((5-(trifluoromethyl)pyrimidin-2-yl)amino)piperidin-1-yl)-1-methyl-1H-benzo[d]imidazol-5-yl)acrylamide], for which the pIC50 was over 7.30.

Consider `C=CC(=O)Nc1ccc2c(c1)nc(N1CCC(F)(F)[C@@H](Nc3ncc(C(F)(F)F)cn3)C1)n2C` [Example 92, (S)—N-(2-(4,4-Difluoro-3-((5-(trifluoromethyl)pyrimidin-2-yl)amino)piperidin-1-yl)-1-methyl-1H-benzo[d]imidazol-5-yl)acrylamide], for which the pIC50 is over 7.30.

`C=CC(=O)Nc1ccc2c(c1)nc(N1C[C@H](F)C[C@@H](Nc3ncc(C(F)(F)F)cn3)C1)n2C` [Example 93, N-(2-((3R,5R)-3-Fluoro-5-((5-(trifluoromethyl)pyrimidin-2-yl)amino)piperidin-1-yl)-1-methyl-1H-benzo[d]imidazol-5-yl)acrylamide]: the negative-log IC50 (pIC50) is over 7.30.

For the compound `C=CC(=O)Nc1cc2nc(N3C[C@H](F)C[C@@H](Nc4ncc(C(F)(F)F)cn4)C3)n(C)c2cc1C1CC1` [Example 95, N-(6-Cyclopropyl-2-((3R,5R)-3-fluoro-5-((5-(trifluoromethyl)pyrimidin-2-yl)amino)piperidin-1-yl)-1-methyl-1H-benzo[d]imidazol-5-yl)acrylamide], the pIC50 is over 7.30.

Take `C=CC(=O)Nc1cc2nc(N3CCC(F)(F)[C@@H](Nc4ncc(C(F)(F)F)cn4)C3)n(C)c2cc1C` [Example 97, (S)—N-(2-(4,4-Difluoro-3-((5-(trifluoromethyl)pyrimidin-2-yl)amino)piperidin-1-yl)-1,6-dimethyl-1H-benzo[d]imidazol-5-yl)acrylamide]: the pIC50 was over 7.30.

As for `C=CC(=O)Nc1cc2nc(N3CC[C@@H](F)[C@@H](Nc4ncc(C(F)(F)F)cn4)C3)n(C)c2cc1C` [Example 98, N-(2-((3S,4R)-4-Fluoro-3-((5-(trifluoromethyl)pyrimidin-2-yl)amino)piperidin-1-yl)-1,6-dimethyl-1H-benzo[d]imidazol-5-yl)acrylamide], the pIC50 is over 7.30.

With `C=CC(=O)Nc1cc2nc(N3CC[C@H](F)[C@@H](Nc4ncc(C(F)(F)F)cn4)C3)n(C)c2cc1C` [Example 99, N-(2-((3S,4S)-4-Fluoro-3-((5-(trifluoromethyl)pyrimidin-2-yl)amino)piperidin-1-yl)-1,6-dimethyl-1H-benzo[d]imidazol-5-yl)acrylamide], the pIC50 is over 7.30.

As for `C=CC(=O)Nc1cc2nc(N3C[C@H](F)C[C@@H](Nc4ncc(C(F)(F)F)cn4)C3)n(C)c2cc1C(C)C` [Example 101, N-(2-((3R,5R)-3-Fluoro-5-((5-(trifluoromethyl)pyrimidin-2-yl)amino)piperidin-1-yl)-6-isopropyl-1-methyl-1H-benzo[d]imidazol-5-yl)acrylamide], the pIC50 is over 7.30.

With `C=CC(=O)Nc1c(Br)cc2c(nc(N3CCC[C@@H](Nc4ncc(C(F)(F)F)cn4)C3)n2C)c1C` [Example 103, (R)—N-(6-Bromo-1,4-dimethyl-2-(3-((5-(trifluoromethyl)pyrimidin-2-yl)amino)piperidin-1-yl)-1H-benzo[d]imidazol-5-yl)acrylamide], the negative logarithm of the IC50 (pIC50) was over 7.30.

As for `C=CC(=O)N1C2CCC1CN(c1nccn3c(N4CCC[C@@H](Nc5ncc(C(F)(F)F)cn5)C4)ncc13)C2` [Example 109, 1-(3-(3-((R)-3-((5-(Trifluoromethyl)pyrimidin-2-yl)amino)piperidin-1-yl)imidazo[1,5-a]pyrazin-8-yl)-3,8-diazabicyclo[3.2.1]octan-8-yl)prop-2-en-1-one], the pIC50 was over 7.30.

The values above are taken from patent US12643881B2, “Bicyclic amine CDK12 inhibitors” (Incyte Corporation, priority 2021, dated 2026).
